Test results published in patent US11512224B2, “Water-based coating composition and production method of the same” (TOYOTA JIDOSHA KABUSHIKI KAISHA, priority 2018, dated 2022).

Assay: Solubility in water at 20° C.
Settings: for Solubility of curing catalyst in water: under atmospheric pressure at 20° C.; for Solubility of organic solvent in water: 20° C.

## C1CN=C2CCCN2C1 [DBN, diazabicyclononene]
  Solubility of curing catalyst in water: 5 or greater g/100 ml
Listed as diazabicyclononene
  Solubility of curing catalyst in water: ≥ 0.5 g/100 ml

## C1CCC2=NCCCN2CC1.Cc1ccc(S(=O)(=O)O)cc1 [DBU salt, diazabicycloundecene p-toluenesulfonate]
Listed as diazabicycloundecene p-toluenesulfonate, p-toluenesulfonate
  Solubility of curing catalyst in water: ≥ 0.5 g/100 ml
p-toluenesulfonate
  Solubility of curing catalyst in water: 5 or greater g/100 ml

## C1CCC2=NCCCN2CC1 [DBU, diazabicycloundecene]
  Solubility of curing catalyst in water: 5 or greater g/100 ml
Listed as diazabicycloundecene
  Solubility of curing catalyst in water: ≥ 0.5 g/100 ml

## CC(C)O [IPA, 2-propanol]
  Solubility of organic solvent in water: ≥ 10 or g/100 ml
Listed as 2-propanol
  Solubility of organic solvent in water: ≥ 10 g/100 ml

## COCC(C)O (stereo not shown) [PGME, 1-methoxy-2-propanol]
  Solubility of organic solvent in water: ≥ 10 or g/100 ml
Listed as 1-methoxy-2-propanol
  Solubility of organic solvent in water: ≥ 10 g/100 ml
